Test results: patent publication US5521159A, “Partially modified and retro-inverted tetrapeptides analogues of C-reactive protein fragments” (Italfarmaco S.p.A., priority 1992, dated 1996)

Columns and labels:
[1] = tested on: murine splenocytes; assay: Stimulation of in vitro IFN-.tau. production by murine splenocytes (ELISA); assay type: cell-based, BALB/C mice; details: for IFN-.tau. production, Stimulation index / IFN-.tau. production, U/ml: 24 hours; for IFN-.tau. production, Stimulation index: with respect to untreated cells; for IFN-.tau. production, U/ml: control 31 (Ex.1, Ex.2), 41 (Ex.3)
Description: Stimulation of in vitro IFN-.tau. production by murine splenocytes
The splenic cells were obtained from spleen of BALB/C mice as single cells suspension. The splenocytes thus obtained were resuspended in RPMI 1640 culture medium (Flow Lab., Hertz, UK) containing 5% of fetal calf serum (FCS) (HyClone, ST, Utah, USA) at a final concentrazione of 10^7 cells/ml, and incubated in 96-well plates for 24 hours at 37° C. in the presence of the tested compounds at the indicated concentration. At the end of the incubation the supernatant was collected, filtered by […] filter and freezed to -80° C. until the time of the test carried out by ELISA commercial kit (Genzyme, Boston, Mass., USA).

[2] = tested on: murine peritoneal macrophages; assay: Stimulation of IL-1 production by murine peritoneal macrophages (ELISA); assay type: cell-based, BALB/C mice; details: 96 hours; for IL-1 production, Stimulation index: with respect to control; for IL-1 production, U/ml: control 15
Excerpt: Stimulation of IL-1 production by murine peritoneal macrophages
Murine peritoneal macrophages were obtained by inoculation of a solution of hydrolized starch (BDH Chemicals, Poole, Dorset, UK) into the peritoneal cavity of BALB/C. mice, three days before sacrificing the animals. The peritoneal cells were then collected by washing the peritoneal cavity with a solution of RPMI 1640 containing 10% of FCS, and resuspended in the same solution at a concetration of 10^6 cells/ml in 96-well plates. The incubation was performed for 96 hours at 37° C. in the presence of the compounds in question. At the end of the treatment the supernatants were collected and used for dosing cytokine by means of a suitable ELISA commerical kit (Genzyme, Boston, Mass., USA).

[3] = tested on: murine peritoneal cells; assay: Stimulation of the nitric oxide by murine peritoneal cells (chemiluminescence); assay type: cell-based, BALB/C mice; details: with lipopolysaccharide 30 μg/ml, 96 hours; for nitric oxide, Stimulation index: with respect to control; for nitric oxide content: control 20
Description: Stimulation of the nitric oxide by murine peritoneal cells
The peritoneal cells were obtained as described in the previous test, and incubated for 96 hours at 37° C. in the presence of the compounds in question and of lipopolysaccharide at a concentration of 30 μg/ml. At the end of the treatment the supernatants were collected and the nitric oxide content was determined by the chemiluminescence test described by Palmer R. M. J. et al, Nature, 327, 524, 1987.

[4] = tested on: Leishmania major; assay: Effect on the leishmanicidal activity of murine peritoneal macrophage (3H-thymidine incorporation); assay type: cell-based; details: for 3H-thymidine incorporation by living parasites, cpm (counts per minute): 24 hours pre-incubation of macrophages, control 18,273; for % reduciton of infection: versus control
Description: Effect on the leishmanicidal activity of murine peritoneal macrophage
The peritoneal cells collected as described above were seeded in 96-well flat bottom plates (Nunc, Roskiled, DK) at a concentration of 10^5 /100 μl; and incubated per 24 hours at 37° C. At the end of the treatment, the cells not adherent to the well were separated and discharged, whereas the adherent cells were washed three time with culture medium and incubated for 24 hours with the compounds in question, then the cells were infected through a 24 hours incubation with promastigotes of Leishmania major (L. major, PVL49 strain supplied by Dr. Neal R. A., London School of Hygiene and Tropical Medicine, London, UK). At the end of the infection treatment each well was added with 100 μl of a 0.01% solution od sodium dodecylsulphate in RPMI 1640, and the plates were incubated for 30 minutes at 37° C. The Schneider's culture medium (Schneider Drosophila medium, Gibco Lab., Grand island, N.Y., USA) with 30% of FCS was added. Each well was added with 1 μCi of ^3 H-thymidine, and a 72 hours incubation was carried out at 37° C. The incorporation of radioactivity by the living parasites inside the peritoneal cells, which is correlated to the infection degree and consequently to the leishmanicidal activity of the cells, was measured by collecting the cells by means of a cell-harvester and measuring the radioactivity with liquid scintillation β-counter.

[5] = tested on: BALB/C mice inoculated with LPS; assay: In vivo protection against septic shock (LPS-inoculated mice); details: LPS 50 mg/kg intraperitoneally, checked for 8 days
Description: Evaluation of the in vivo protection against septic shock
BALB/C mice (6 mice/group) weighting between 20 and 25 g, were intraperitoneally inoculated with 50 mg/kg of LPS (lipopolysaccharide-Sigma). The groups, except for the control, were inoculated with increasing doses of one of the compounds of the invention dissolved in physiologic solution having a final volume of 0.5 ml, at time 0 (i.e. together with LPS) or 30 minutes after the LPS inoculation. The mice were checked for 8 days to determined the survival percentage. Compound of Example 1 yields a survival percentage of about 65% at doses of 6.2 ug/mouse and 0.62 ug/mouse, and its isomer B yields a survival percentage of about 80% at a dose of 6.25 ug/mouse and of 75% at a dose of 62.5 ug/mouse.

Compound	IFN-.tau. production, Stimulation index ([1]; 0.1 μg/ml)	IFN-.tau. production, U/ml ([1]; 0.1 μg/ml) [U/ml]	IFN-.tau. production, Stimulation index ([1]; 1.0 μg/ml)	IFN-.tau. production, U/ml ([1]; 1.0 μg/ml) [U/ml]	IFN-.tau. production, Stimulation index ([1]; 10.0 μg/ml)	IFN-.tau. production, U/ml ([1]; 10.0 μg/ml) [U/ml]	IL-1 production, Stimulation index ([2]; 0.01 μg/ml)	IL-1 production, U/ml ([2]; 0.01 μg/ml) [U/ml]	IL-1 production, Stimulation index ([2]; 0.1 μg/ml)	IL-1 production, U/ml ([2]; 0.1 μg/ml) [U/ml]	IL-1 production, Stimulation index ([2]; 1.0 μg/ml)	IL-1 production, U/ml ([2]; 1.0 μg/ml) [U/ml]	IL-1 production, Stimulation index ([2]; 10.0 μg/ml)	IL-1 production, U/ml ([2]; 10.0 μg/ml) [U/ml]	nitric oxide, Stimulation index ([3]; 0.01 μg/ml)	nitric oxide content ([3]; 0.01 μg/ml) [nmol/mL]	nitric oxide, Stimulation index ([3]; 0.1 μg/ml)	nitric oxide content ([3]; 0.1 μg/ml) [nmol/mL]	nitric oxide, Stimulation index ([3]; 1.0 μg/ml)	nitric oxide content ([3]; 1.0 μg/ml) [nmol/mL]	further results
N=C(N)NCCC[C@H](NC(=O)[C@@H]1CCCN1C(=O)C(CCCCN)C(=O)NCN)C(=O)O (single isomer, unassigned) [Ex.1]	1.1	33	1.9	60	1.6	49	0.4	6	0.1	2	0.1	2	0.1	2	2.2	43	3.0	59	3.9	77	IFN-.tau. production, Stimulation index ([1]; 1.0 μg/ml, listed as example 1): doubled; stimulation of IFN-.tau. production, result in words ([1]; 0.1 to 10.0 μg/ml): the most powerful one of the present class; nitric oxide, Stimulation index ([3]; 10.0 μg/ml): 2.9; nitric oxide content ([3]; 10.0 μg/ml): 57 nmol/mL; 3H-thymidine incorporation by living parasites, cpm (counts per minute) ([4]; 0.1 μg/ml): 5,096 cpm; % reduciton of infection ([4]; 0.1 μg/ml): over 70%; % reduciton of infection ([4]; 0.1 μg/ml, listed as Es. 1): 72%; 3H-thymidine incorporation by living parasites, cpm (counts per minute) ([4]; 1.0 μg/ml): 3,783 cpm; % reduciton of infection ([4]; 1.0 μg/ml): 79%; 3H-thymidine incorporation by living parasites, cpm (counts per minute) ([4]; 10.0 μg/ml): 4,292 cpm; % reduciton of infection ([4]; 10.0 μg/ml): 77%; reduction of the infection degree, result in words ([4]; 0.1 to 10.0 μg/ml): the utmost effective; survival percentage ([5]; 0.62 ug/mouse): about 65%; survival percentage ([5]; 6.2 ug/mouse): about 65%
H-gThr-R,S)mLys-Pro-LeU-OH.AcOH [Ex.2]	1.8	57	1.7	52	1.9	60	6.0	90	4.0	60	3.1	47	3.3	50	4.3	85	3.1	61	3.3	66	nitric oxide, Stimulation index ([3]; 10.0 μg/ml): 4.0; nitric oxide content ([3]; 10.0 μg/ml): 79 nmol/mL; 3H-thymidine incorporation by living parasites, cpm (counts per minute) ([4]; 0.1 μg/ml): 17,568 cpm; % reduciton of infection ([4]; 0.1 μg/ml): 4%; 3H-thymidine incorporation by living parasites, cpm (counts per minute) ([4]; 1.0 μg/ml): 11,991 cpm; % reduciton of infection ([4]; 1.0 μg/ml): 34%; 3H-thymidine incorporation by living parasites, cpm (counts per minute) ([4]; 10.0 μg/ml): 10,582 cpm; % reduciton of infection ([4]; 10.0 μg/ml): 42%
H-gThr-(R,S)mLys-Pro-Gln-OH.AcOH [Ex.3]	1.5	60	1.5	60	1.7	68	10.0	150	10.7	160	10.3	155	9.3	140	2.5	50	3.0	60	3.3	66	nitric oxide, Stimulation index ([3]; 10.0 μg/ml): 4.4; nitric oxide content ([3]; 10.0 μg/ml): 88 nmol/mL; 3H-thymidine incorporation by living parasites, cpm (counts per minute) ([4]; 0.1 μg/ml): 18,826 cpm; % reduciton of infection ([4]; 0.1 μg/ml): -3%; 3H-thymidine incorporation by living parasites, cpm (counts per minute) ([4]; 1.0 μg/ml): 8,377 cpm; % reduciton of infection ([4]; 1.0 μg/ml): 54%; 3H-thymidine incorporation by living parasites, cpm (counts per minute) ([4]; 10.0 μg/ml): 7,842 cpm; % reduciton of infection ([4]; 10.0 μg/ml): 57%
N=C(N)NCCC[C@H](NC(=O)[C@@H]1CCCN1C(=O)C(CCCCN)C(=O)NCN)C(=O)O (single isomer, unassigned) [isomer B]																					survival percentage ([5]; 6.25 ug/mouse): about 80%; survival percentage ([5]; 62.5 ug/mouse): 75%
